According to publication PMC8470881, “Membrane Interactions of Latarcins: Antimicrobial Peptides from Spider Venom” (International Journal of Molecular Sciences, 2021):
No end group written: not given here.

What was measured:
[1] = system: Bacillus subtilis subsp. spizizenii (DSM 347), Staphylococcus xylosus (DSM 20267), Escherichia coli (DSM 1116), Acinetobacter sp. (DSM 586); conditions: for MIC: irrespective of the bacterial strain (all four strains), Müller-Hinton medium, 20 h at 37 °C, maximum tested 256 µg/mL
Description: The effect of latarcins against four types of bacteria was determined using a minimum inhibitory concentration (MIC) assay on two Gram-positive strains (Bacillus subtilis subsp. spizizenii and Staphylococcus xylosus) and two Gram-negative strains (Escherichia coli and Acinetobacter sp.). Although the antimicrobial activity of latarcins is well documented, these experiments served to ensure that all studies were performed on molecules that show the expected antimicrobial activity.
The minimum inhibitory concentration (MIC) was determined as previously reported. For each latarcin, MIC was determined against two Gram-positive strains, namely Bacillus subtilis subsp. spizizenii (DSM 347) and Staphylococcus xylosus (DSM 20267), and two Gram-negative strains: Escherichia coli (DSM 1116) and Acinetobacter sp. (DSM 586). Bacterial cultures were grown in Müller-Hinton medium (MHM) as described previously, and peptides were dissolved in sterile water containing 10% DMSO. The stock solution of peptides with 1024 µg/mL was prepared such that serial dilutions of peptides (from 256 µg/mL to 2 µg/mL) in MHM were prepared in 96-well plates with the penultimate column without peptide to act as positive control (no peptide) and the final column as negative control (no bacteria). Bacterial stock suspension was made with an OD of 0.2 units at 550 nm. This stock solution was further diluted (1:1000 for Gram-negative bacteria and 1:100 for Gram-positive bacteria), and subsequently, 50 µL of the resulting bacterial suspension was added to the wells except the final well to give a final concentration of 10^6 colony-forming units per mL. Afterwards, the 96-well plates were incubated at 37 °C for 20 h, and cellular respiration was detected by adding 20 µL of resazurin solution (200 µg/mL) for an additional 2 h at the same temperature.

[2] = system: human red blood cells; test: Hemolysis assay; conditions: peptide concentration 128 µg/mL, 30 min, 37 °C
Description: A hemolysis assay was performed to determine the activity of latarcins against human red blood cells, allowing us to compare the results to those of previous experiments in which rabbit erythrocytes were used. The activity was determined for each latarcin as a function of increasing concentration, up to a maximum of 256 µg of peptides per mL. […] The percentage hemolysis of the other peptides was determined at the highest tested concentration of 256 µg/mL.
The influence of latarcins on human erythrocytes was determined by using a hemolysis assay modified from previously published methods. Blood was obtained from the blood bank of the local hospital in Karlsruhe and stabilized with citrate phosphate dextrose buffer. Erythrocyte suspension (5 mL) was taken up in Tris buffer (45 mL, 172 mM, pH 7.6) at room temperature, gently mixed, and centrifuged (1500 rpm, 10 min). The supernatant solution was removed, and Tris wash was repeated twice with 45 mL as above. The washed erythrocytes (1 mL) were suspended in 9 mL Tris buffer to make the stock cell suspension, which was then further diluted to 0.25% (v/v) at 37 °C before use. Peptide stock solutions were prepared with 1024 µg/mL in Tris buffer containing 10% DMSO, and serial dilutions were prepared in the range of 512 µg/mL to 2 µg/mL as described previously. For the positive control, Triton X-100 (200 µL of 0.2% v/v) was used, and as the negative control, Tris buffer (200 µL, 172 mM) was used. Erythrocyte stock cell suspension (200 µL) was added to each of the samples and incubated for 30 min at 37 °C with gentle shaking before determining the percentage of hemolysis as described previously.

[3] = Oriented circular dichroism (helix alignment in membrane); format: physicochemical; conditions: DMPC/DMPG (7/3), P/L = 1:100, oriented hydrated bilayers, 30 °C
From the text: This is the same lipid composition and peptide-to-lipid ratio as was used in conventional CD above (see Figure 2), but in contrast to the vesicular samples containing excess water, the oriented membranes for OCD are just about saturated with water.
The sign and intensity of the 208 nm band provide a characteristic signature of the helix tilt angle in the membrane [19]. For a helical peptide that lies flat on the bilayer surface, this band is the most intense.
To prepare oriented CD (OCD) samples, latarcins depending on their solubility were dissolved either in pure MeOH or CHCl3/MeOH 1/1 (v/v) and thoroughly mixed with appropriate aliquots of DMPC/DMPG solutions (7/3 molar ratio) in the same solvent. Each co-dissolved mixture with a peptide-to-lipid molar ratio of 1/100 was deposited on a quartz glass plate using a gas-tight syringe. To achieve a spot size of 12.5 mm on the 20 mm diameter plates (Suprasil QS, Hellma Optik GmbH, Jena, Germany), a volume of ~55–60 µL was used. The organic solvents were evaporated in a gentle stream of air until the sample appeared dry. The amounts of deposited lipid and peptide on the plate were always 0.29 μmole and 2.9 nmole, respectively. The peptide-lipid-film was further dried under reduced pressure for at least 3 h. Afterwards, each plate with the dried sample was fixed and sealed by a polymer O-ring in a cylindrical sample holder. The plate with the sample and a second window plate without the sample formed a compartment for controlled hydration. The holder was assembled in a custom-built hydration cell. In the inner compartment of the sample holder, the peptide-lipid film was hydrated for about 15 h at 30 °C and 97% relative humidity via the gas phase by a saturated K2SO4 solution contained in an adjacent cavity of the hydration cell. During hydration, the lipids spontaneously align as lipid bilayers that are macroscopically oriented perpendicular to the glass surface. For the measurement, the holder was transferred to an OCD sample cell that had been developed and built in-house [20]. It is computer-controlled and can be integrated into a Jasco spectropolarimeter as an accessory. The optical path runs along the cylindrical axis of the cell, i.e., normal to the quartz glass plate surface carrying the oriented lipid film. To reduce possible spectral artifacts caused by linear dichroism (LD) or linear birefringence (LB) due to imperfections in the sample, strain in the quartz glass or imperfect alignment of the windows, the OCD spectra were recorded in steps of 45° by rotation of the cell around the beam axis [19, 20]. At each angle, two scans were recorded from 260–185 nm as an average, using a scan rate of 20 nm min^−1, 4 s response time, and 1 nm bandwidth.

[4] = Circular dichroism spectroscopy (secondary structure); format: physicochemical; conditions: CD in DMPC/DMPG (7/3) SUVs, P/L = 1:50, 10 mM phosphate buffer pH 7.0, 30 °C, peptide 29.3 μM; deconvolution with CDSSTR, CONTIN-LL, SELCON-3
From the text: Next, we compared the secondary structure of the full set of latarcins in the presence of lipid membranes, for which there are no complete data available yet.
The CD line shapes (Figure 2) were deconvoluted to estimate the secondary structure contributions (Supplementary Table S1) using the CDSSTR, CONTIN-LL, and SELCON-3 algorithms provided on the DICHROWEB online server as described previously. […] In peptides containing a high proportion of aromatic residues, such shifts of the long-wavelength band are well documented.
Small unilamellar vesicles (SUVs) for the CD measurements were prepared as follows. Weighed amounts of the lipid powders (DMPC, DMPG) were dissolved in chloroform/methanol 1/1 (v/v) to obtain 5 mg/mL stock solutions. For obtaining mixed DMPC/DMPG liposomes (7/3 molar ratio), the appropriate aliquots of these stock solutions were pipetted in a glass vial and thoroughly vortexed. The organic solvents were removed under a gentle stream of nitrogen gas, followed by 3 h of vacuum pumping in an exsiccator at a reduced pressure of 3-4 mbars to remove solvent residuals from the lipid film that had formed in the vial. The lipid film was dispersed by the addition of 10 mM phosphate buffer (PB) pH 7.0 and homogenized by vigorously vortexing for 10 × 1 min and 10 freeze–thaw cycles. SUVs were formed by sonication of the obtained multilamellar vesicles for 16 min in a strong ultrasonic bath (UTR 200, Hielscher, Germany). The temperature of the water in the ultrasonic bath was adjusted to 35 °C by circulating it through a thermostat to avoid overheating the samples. A weighed amount of the corresponding peptide was dissolved in water resulting in stock solutions with a peptide concentration of 0.5 mg/mL. For the final CD samples, each peptide stock solution was diluted to 29.3 μM and the corresponding lipid dispersion to 1.47 mM in 10 mM PB, resulting in a peptide-to-lipid (P/L) ratio of 1/50.
[…] The samples were measured in a 1-millimeter path length quartz glass cell (Suprasil, Hellma Müllheim, Germany) between 260 and 185 nm at 0.5 nm intervals. Spectra of the liposome samples were recorded at 30 °C, i.e., well above the phase transition temperature of the lipids, using a water-thermostated rectangular cell holder. Three repeat scans at a scan rate of 10 nm min^−1, 8 s response time, and 1 nm bandwidth were averaged for each sample, and the baseline spectrum of the respective peptide-free sample was subtracted from the sample spectrum. CD spectra were smoothened by a Savitzky-Golay filter (convolution width of 15 data points), which is implemented in the Jasco Spectra Analysis software.

[5] = Solid-state 15N-NMR (helix alignment in membrane); format: physicochemical; conditions: DMPC/DMPG (7/3), P/L = 1:100, oriented samples, solid-state 15N-NMR, 308 K
Description: While OCD provides a rough picture of the peptide alignment, the helix tilt angle can be measured rather precisely by solid-state NMR using the same type of oriented membrane sample. […] If the peptides are not helical, then the orientation cannot be determined from these ^15N-NMR spectra (which is why CD/OCD need to be performed first), but other information may be available. Oriented NMR samples were prepared at a P/L of 1/100 in DMPC/DMPG (7/3), as for CD/OCD. The ^15N-NMR spectra of all latarcins are summarized in Figure 7, along with the corresponding ^31P-NMR spectra of the phospholipid component. […] This conclusion is supported by the vesicle leakage data above.
Ltc2a, with a chemical shift of 131 ppm, on the other hand, is distinctly tilted in the membrane, as was also observed in the OCD experiments. […] Ltc3a, with a chemical shift of 93 ppm, is tilted only slightly by 10–20°. […] Given that OCD had shown distinct signs of aggregation into β-sheets, we can conclude that Ltc6a binds to the membrane and perturbs the lipid bilayer, but it is not possible to determine the molecular alignment of Ltc6a when it has most likely formed aggregates.
Macroscopically oriented NMR samples were prepared by co-dissolving appropriate amounts of peptides and lipids (in 300 μL methanol, 100 μL CHCl3, and 10–20 μL Milli-Q water) and spreading them onto 23 thin glass plates of dimensions 9 mm × 7.5 mm × 0.08 mm (Marienfeld Laboratory Glassware, Lauda-Königshofen, Germany). The peptide-to-lipid ratio (P/L) is given in mol/mol. The plates were dried in air for 1 h, followed by drying under vacuum overnight. The plates were stacked and placed into a hydration chamber with 96% relative humidity at 48 °C for 18–24 h before wrapping the stack in parafilm and plastic foil for the NMR measurements. All solid-state NMR measurements were carried out on a Bruker Avance 500 MHz spectrometer (Bruker Biospin, Karlsruhe, Germany) at 308 K, as previously reported. The oriented membrane samples were placed in the flat-coil probe such that the lipid bilayer normal was aligned parallel to the magnetic field. ^31P-NMR was used to check the quality of the lipid orientation in the samples, using a Hahn echo sequence with phase cycling. The 90° pulse length was 3.9 µs, the echo time was 30 µs, and 17 kHz ^1H SPINAL64 decoupling was used. ^1H-^15N cross-polarization experiments using a CP-MOIST pulse sequence were performed using a double-tuned probe with a low-E flat-coil resonator (3 mm × 9 mm cross-section), employing a ^1H and ^15N radiofrequency field strength of 65 kHz during the cross-polarization and 25 kHz ^1H SPINAL16 [41] decoupling during acquisition. A mixing time of 500 μs was used, and 10,000 to 30,000 scans were accumulated. The acquisition time was 10 ms, and the recycle time was 3 s. The ^15N chemical shift was referenced using the ^1H-NMR signal of water in the sample.

Substance	MIC [1]	% Hemolysis [2]	MIC (relative antimicrobial activity) ([1]; relative activity over two Gram-positive and two Gram-negative strains)	OCD: orientational state of the helix [3]	% Helix (CD) [4]	NMR: orientational state of the helix [5]
GLFGKLIKKFGRKAISYAVKKARGKH [Ltc2a]	below 4 µg/mL	100%				
H-SMWSGMWRRKLKKLRNALKKKLKGE-OH [Ltc1]	below 4 µg/mL		+++	Surface	66%	Surface
